6 compounds from patent US8906925B2, “Pyrido[4,3-B]indoles containing rigid moieties” (Medivation Technologies, Inc., priority 2008, dated 2014) can be followed below.

Where “and” joins values, the source holds several entries; their conditions need not be identical. Identical values can stand only once. Like-named read-outs stand apart in the source and are kept apart here.

For one test, the target named is histamine receptor H1 (Homo sapiens, UniProt P35367). The experiment in a line: Histamine H1 radioligand binding ([3H]Pyrilamine). The note with it: for inhibition at 1 µM: read-out: Histamine Binding (1 μM) H1, percent inhibition of specific binding, 1 μM. The method in brief:
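Values are percent inhibition of specific [3H]pyrilamine (1.2 nM) binding with compounds at ≤1 μM (1% DMSO vehicle); 180 min incubation at 25 °C, pH 7.4 Tris buffer, on CHO-expressed human H1 receptor; 1 μM pyrilamine defined nonspecific binding, bound ligand counted after filtration.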

The target of test [1] is T1, human recombinant adrenergic α2A receptor (Homo sapiens, UniProt P08913).
T1 construct: expressed in transfected cells; host or cells: insect Sf9 cells
T1 sequence (P08913 1-465): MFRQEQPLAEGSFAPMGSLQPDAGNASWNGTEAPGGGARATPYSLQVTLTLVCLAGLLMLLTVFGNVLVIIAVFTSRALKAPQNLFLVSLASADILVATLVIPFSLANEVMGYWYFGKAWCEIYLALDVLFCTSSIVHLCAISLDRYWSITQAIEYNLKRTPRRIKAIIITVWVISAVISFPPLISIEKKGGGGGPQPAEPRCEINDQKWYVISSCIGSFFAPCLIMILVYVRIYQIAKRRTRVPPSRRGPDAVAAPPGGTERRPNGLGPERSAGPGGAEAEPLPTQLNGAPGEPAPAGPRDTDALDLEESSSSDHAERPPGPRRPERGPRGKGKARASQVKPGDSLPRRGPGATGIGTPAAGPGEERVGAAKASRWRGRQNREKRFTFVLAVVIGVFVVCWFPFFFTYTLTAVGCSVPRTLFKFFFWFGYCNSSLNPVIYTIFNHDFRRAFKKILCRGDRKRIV
The experiment in a line: Adrenergic α2A radioligand binding ([3H]MK-912). Particulars: compound at 1 μM. Put shortly:
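Sf9-expressed human receptor in 50 mM Tris-HCl pH 7.4, 12.5 mM MgCl2, 2 mM EDTA; compounds at 1 μM or lower (1% DMSO) incubated with 1 nM [3H]MK-912 for 60 min at 25° C. Non-specific binding defined with 10 μM WB-4101; filtered bound radioactivity counted, reported as percent inhibition of specific binding.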

Test [2] concerns the target T2, human recombinant adrenergic α2B receptor (Homo sapiens, UniProt P18089).
T2 construct: expressed in transfected cells; host or cells: Chinese hamster ovary (CHO-K1) cells
T2 sequence (P18089 1-450): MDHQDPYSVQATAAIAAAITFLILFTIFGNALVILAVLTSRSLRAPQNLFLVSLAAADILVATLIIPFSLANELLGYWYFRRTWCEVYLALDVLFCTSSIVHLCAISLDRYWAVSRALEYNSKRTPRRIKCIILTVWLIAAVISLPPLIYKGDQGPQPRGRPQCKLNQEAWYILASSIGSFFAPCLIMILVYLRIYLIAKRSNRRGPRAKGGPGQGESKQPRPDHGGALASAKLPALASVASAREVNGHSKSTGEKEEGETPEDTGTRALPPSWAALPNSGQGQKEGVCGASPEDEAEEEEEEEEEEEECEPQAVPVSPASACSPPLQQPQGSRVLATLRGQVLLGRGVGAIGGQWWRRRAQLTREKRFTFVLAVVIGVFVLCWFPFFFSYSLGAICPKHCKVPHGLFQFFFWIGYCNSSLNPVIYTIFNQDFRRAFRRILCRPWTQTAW
The experiment in a line: Adrenergic α2B radioligand binding ([3H]Rauwolscine). The note with it: compound at 1 μM. Put shortly:
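Membranes from CHO-K1 cells expressing the receptor were incubated with 2.5 nM [3H]Rauwolscine for 60 min at 25 °C in Tris-HCl buffer pH 7.4 with MgCl2, EDTA and BSA. Non-specific binding was defined with 10 μM prazosin. Compounds were tested at ≤1 μM in 1% DMSO and read out as % inhibition of specific binding after filtration.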

Test [3] deals with human dopamine D2L receptor (Homo sapiens, UniProt P14416). The experiment in a line: Dopamine D2L radioligand binding ([3H]Spiperone). Particulars: compound at 1 μM. The text has this: Non-specific binding was estimated in the presence of […] Haloperidol. Receptor proteins were filtered and washed, the filters were then counted to determine [^3H]Spiperone specifically bound. […] Biochemical assay results are presented as the percent inhibition of specific binding in Table 9.

In test [4] the target is T3, human recombinant serotonin (5-Hydroxytryptamine) 5-HT6 receptor (Homo sapiens, UniProt P50406).
T3 construct: expressed in transfected cells; host or cells: human HeLa cells
The experiment in a line: Serotonin 5-HT6 radioligand binding ([3H]LSD). Particulars: read-out: Inhibition of ligand binding, Serotonin 5-HT6 (percent inhibition of specific binding); for inhibition at 0.1 µM: compound at 0.1 μM; for inhibition at 1 µM: compound at 1 μM. The method, then:
Compounds of the invention were incubated with 1.5 nM [3H]Lysergic acid diethylamide (LSD) for 120 min. at 37° C. […] Receptor proteins were filtered and washed, the filters were then counted to determine [3H]LSD specifically bound. Compounds were screened at 1 μM or lower, using 1% DMSO as vehicle. Biochemical assay results are presented as the percent inhibition of specific binding in Table 10.

The mark [5] stands for this setting: percent inhibition of specific binding, read-out: Inhibition of ligand binding, Adrenergic α2A.
Where [6] appears, read: percent inhibition of specific binding, read-out: Inhibition of ligand binding, Adrenergic α2B.
[7] abbreviates: percent inhibition of specific binding, read-out: Inhibition of ligand binding, Dopamine D2L.

Sequence of histamine receptor H1 (P35367 whole entry): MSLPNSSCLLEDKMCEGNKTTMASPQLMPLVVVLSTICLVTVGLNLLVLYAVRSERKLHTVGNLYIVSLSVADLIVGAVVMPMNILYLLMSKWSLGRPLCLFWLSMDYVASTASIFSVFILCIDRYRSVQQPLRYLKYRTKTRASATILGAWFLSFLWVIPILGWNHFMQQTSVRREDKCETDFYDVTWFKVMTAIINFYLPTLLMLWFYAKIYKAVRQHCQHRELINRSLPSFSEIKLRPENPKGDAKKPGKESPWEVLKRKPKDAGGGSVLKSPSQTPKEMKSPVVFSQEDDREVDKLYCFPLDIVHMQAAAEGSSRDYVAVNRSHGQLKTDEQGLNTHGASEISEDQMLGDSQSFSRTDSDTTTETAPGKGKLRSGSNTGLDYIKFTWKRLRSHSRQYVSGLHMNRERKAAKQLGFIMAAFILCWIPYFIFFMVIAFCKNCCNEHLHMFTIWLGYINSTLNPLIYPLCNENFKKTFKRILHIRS
T3 sequence (P50406 whole entry): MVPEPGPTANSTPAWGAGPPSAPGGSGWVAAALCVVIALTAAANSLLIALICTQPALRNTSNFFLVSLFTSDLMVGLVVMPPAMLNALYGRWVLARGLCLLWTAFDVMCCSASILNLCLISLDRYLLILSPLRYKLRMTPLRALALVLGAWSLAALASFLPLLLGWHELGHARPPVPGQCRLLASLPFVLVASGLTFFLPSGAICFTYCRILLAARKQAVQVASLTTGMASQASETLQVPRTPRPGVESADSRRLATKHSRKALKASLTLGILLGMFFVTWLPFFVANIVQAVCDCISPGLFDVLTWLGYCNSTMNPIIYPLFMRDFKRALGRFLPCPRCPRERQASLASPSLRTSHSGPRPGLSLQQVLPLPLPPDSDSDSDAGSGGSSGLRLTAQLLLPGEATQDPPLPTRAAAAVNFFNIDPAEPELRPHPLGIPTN
Sequence of human dopamine D2L receptor (P14416 whole entry): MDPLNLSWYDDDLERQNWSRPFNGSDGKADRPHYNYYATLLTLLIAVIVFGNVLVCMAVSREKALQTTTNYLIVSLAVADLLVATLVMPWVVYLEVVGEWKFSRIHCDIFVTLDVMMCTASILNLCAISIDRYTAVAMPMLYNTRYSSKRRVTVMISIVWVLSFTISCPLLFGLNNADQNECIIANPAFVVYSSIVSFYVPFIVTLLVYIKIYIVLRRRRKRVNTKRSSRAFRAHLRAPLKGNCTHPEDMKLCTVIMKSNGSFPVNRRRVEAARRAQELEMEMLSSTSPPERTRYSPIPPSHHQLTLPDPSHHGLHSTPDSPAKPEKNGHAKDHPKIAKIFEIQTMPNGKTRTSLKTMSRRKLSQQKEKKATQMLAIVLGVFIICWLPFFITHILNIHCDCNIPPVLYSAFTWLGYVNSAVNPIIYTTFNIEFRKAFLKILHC

As to `Cc1ccc2c(c1)c1c(n2CC(O)(c2ccc(F)cc2)C2CCCCC2)CCN(C)C1` (stereo not drawn) [Compound 171, 1-cyclohexyl-2-(2,8-dimethyl-3,4-dihydro-1H-pyrido[4,3-b]indol-5(2H)-yl)-1-(4-fluorophenyl)ethanol], the inhibition at 1 µM is 13% on histamine receptor H1; 83% in test [1] (setting [5]); 86% in test [2] (setting [6]); 12% in test [3] (setting [7]); 93% in test [4]. Also, in test [4], the inhibition at 0.1 µM came to 35%.

`CN1CCc2c(c3cc(Cl)ccc3n2C/C=C/c2ccncc2)C1` [Compound 127, 8-chloro-2,3,4,5-tetrahydro-2-methyl-5-((E)-3-(pyridin-4-yl)allyl)-1H-pyrido[4,3-b]indole]: the inhibition at 1 µM at histamine receptor H1 stood at 100%; in test [1] (setting [5]) it was 60%; in test [2] (setting [6]) it was 68%; in test [3] (setting [7]) it was 10%; in test [4], 41%.

With `CN1CCc2c(c3cc(Cl)ccc3n2CC(O)(c2ccc(F)cc2)C2CC2)C1` (stereo not drawn) [Compound 82, 2-(8-chloro-1,2,3,4-tetrahydro-2-methylpyrido[4,3-b]indol-5-yl)-1-cyclopropyl-1-(4-fluorophenyl)ethanol], the “Histamine Binding (1 μM) H1, percent inhibition of specific binding” value on histamine receptor H1 (1 μM) was 35% and 64%. For the same compound, the inhibition at 1 µM in test [1] (setting [5]) came to 96%; in test [2] (setting [6]), 99%; in test [3] (setting [7]) it was 39%; in test [4], 103%. Further, in test [3] (percent inhibition of specific binding, 1 µM), the “Inhibition of ligand binding, Dopamine D2L” value amounted to 45%. In addition, the inhibition at 0.1 µM in test [4] was found to be 90%.

As for `C=C(Cn1c2c(c3cc(Cl)ccc31)CN(C)CC2)c1cccnc1` [Compound 133, 8-chloro-2,3,4,5-tetrahydro-2-methyl-5-(2-(pyridin-3-yl)allyl)-1H-pyrido[4,3-b]indole], the inhibition at 1 µM on histamine receptor H1 was 101%; in test [1] (setting [5]), 89%; in test [2] (setting [6]), 103%; in test [3] (setting [7]) it was 29%; in test [4], 80%.

Turning to `Cc1ccc2c(c1)c1c(n2/C=C/c2ccc(C)nc2)CCN(C)C1` [compound 95, 2,3,4,5-tetrahydro-2,8-dimethyl-5-((E)-2-(6-methylpyridin-3-yl)vinyl)-1H-pyrido[4,3-b]indole], the inhibition at 1 µM was determined as 85% on histamine receptor H1; 95% in test [1] (setting [5]); 103% in test [2] (setting [6]); 17% in test [3] (setting [7]); 71% in test [4].

For `CN1CCc2c(c3cc(Cl)ccc3n2C#Cc2ccc(Cl)cc2)C1` [Compound No. 480, 8-chloro-5-((4-chlorophenyl)ethynyl)-2-methyl-2,3,4,5-tetrahydro-1H-pyrido[4,3-b]indole], the inhibition at 1 µM on histamine receptor H1 turned out to be 40%; in test [1] (read-out: Inhibition of ligand binding, Adrenergic α2A (percent inhibition of specific binding)), 94%; in test [2] ([…] [3H]Rauwolscine, read-out: Inhibition of ligand binding, Adrenergic α2B (percent inhibition of specific binding)) it was 100%; in test [3] ([…] [3H]Spiperone, read-out: Inhibition of ligand binding, Dopamine D2L (percent inhibition of specific binding)) it was 18%; in test [4] it was 67%.
